Laboratory results from patent publication US11279733B2, “Peptide antibiotics” (priority 2017, dated 2022).
Converted amounts (≈) assume the structure as drawn. Read-outs that look alike come from different tables or passages of the source. Positions of bridges follow the written chain, without caps; N, C: chain ends. Non-standard residues stand in square brackets, D forms with d. Residues, ends and D or L forms follow the SMILES beside them. *: point of attachment. Decanoyl(3R-OH) = CCCCCCC[C@@H](O)CC(=O)*; dDab = NCC[C@@H](N)C(=O)O; X8 = CC(C)CCCC(C)CC(=O)*; Dab = NCC[C@H](N)C(=O)O

Key:
in vitro = conditions: human
Outline: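 HK2 cells were seeded at 2000 per well in DMEM/F12 with 10% FBS and left to attach for 24 h at 37 °C, 5% CO2. They were then exposed for 24 h to 3-fold peptide dilutions starting from 600 μM solutions in quadruplicate. LDH release was read at 450 nm, and CC50 was fitted from dose-response curves.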

[1] = tested on: P. aeruginosa GN_043, PmxR
Outline: (§1)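 Mid-log cultures grown in Mueller Hinton broth at 37° C were tested by 2-fold broth microdilution at 5×10^5 CFU/mL final. Compounds were dissolved in water and tested over a final range of 32 to 0.015 μg/mL.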

[2] = tested on: K. pneumoniae GN_102 PmxR; conditions: GN 102 PmxR
Outline: as §1

[3] = tested on: K. pneumoniae ATCC 700603, MDR; conditions: ATCC 700603
Outline: as §1

[4] = tested on: K. pneumoniae GN_106, PmxR; conditions: GN 106, PmxR
Outline: as §1

[5] = tested on: S. aureus ATCC 25923, MSSA; conditions: ATCC 25923
Outline: as §1

[6] = tested on: P. aeruginosa GN_105, PmxR; conditions: GN 105, PmxR
Outline: as §1

E. coli ATCC 25922 = conditions: ATCC 25922
Outline: as §1

K. pneumoniae ATCC 13883 = conditions: ATCC 13883
Outline: as §1

P. aeruginosa ATCC 27853 = conditions: ATCC 27853
Outline: as §1

A. baumannii ATCC 19606 = conditions: ATCC 19606
Outline: as §1

[7] = tested on: K. pneumoniae ATCC BAA-2146, NDM-1 pos; conditions: ATCC BAA-2146
Outline: as §1

A. baumannii GN_093 PmxR = conditions: GN 093 PmxR
Outline: as §1

Compound	CC50 at 24 h (in vitro)	MIC P. aeruginosa GN_043, PmxR ([1]; polymyxin-resistant)	MIC K. pneumoniae GN_102 PmxR [2]	MIC K. pneumoniae ATCC 700603, MDR [3]	MIC K. pneumoniae GN_106, PmxR [4]	MIC S. aureus ATCC 25923, MSSA [5]	MIC P. aeruginosa GN_105, PmxR [6]	MIC E. coli ATCC 25922 (E. coli ATCC 25922)	MIC K. pneumoniae ATCC 13883 (K. pneumoniae ATCC 13883)	MIC P. aeruginosa ATCC 27853 (P. aeruginosa ATCC 27853)	MIC A. baumannii ATCC 19606 (A. baumannii ATCC 19606)	MIC K. pneumoniae ATCC BAA-2146, NDM-1 pos [7]	MIC A. baumannii GN_093 PmxR (A. baumannii GN_093 PmxR)	MIC P. aeruginosa GN_043, PmxR ([1]; P. aeruginosa GN_043, PmxR)
CCCCCCC[C@@H](O)CC(=O)N[C@H](CCN)C(=O)N[C@H]1CCNC(=O)[C@H](Cc2ccc(O)cc2)NC(=O)[C@H](CCN)NC(=O)[C@H](CCN)NC(=O)[C@H](CC(C)C)NC(=O)[C@@H](Cc2ccccc2)NC(=O)[C@H](CCN)NC1=O [compound 6511, 3(R)OH-nC9CO-D-Dab-cyc[L-Dab-L-Dab-D-Phe-L-Leu-L-Dab-L-Dab-L-Tyr]] ({Decanoyl(3R-OH)}-[dDab][Dab][Dab][dF]L[Dab][Dab]Y; lactam 2-C)	76 µM	1 µg/mL (≈ 0.914 µM)	8 µg/mL (≈ 7.31 µM)	4 µg/mL (≈ 3.66 µM)	8 µg/mL (≈ 7.31 µM)	32 µg/mL (≈ 29.2 µM)	4 µg/mL (≈ 3.66 µM)	8 µg/mL (≈ 7.31 µM)	8 µg/mL (≈ 7.31 µM)	2 µg/mL (≈ 1.83 µM)	32 µg/mL (≈ 29.2 µM)	2 µg/mL (≈ 1.83 µM)	32 µg/mL (≈ 29.2 µM)	
CCCCCCC[C@@H](O)CC(=O)N[C@H](CCN)C(=O)N[C@H]1CCNC(=O)[C@H](CCC(=O)O)NC(=O)[C@H](CCN)NC(=O)[C@H](CCN)NC(=O)[C@H](CC(C)C)NC(=O)[C@@H](Cc2ccccc2)NC(=O)[C@H](CCN)NC1=O [compound 6512, 3(R)OH-nC9CO-D-Dab-cyc[L-Dab-L-Dab-D-Phe-L-Leu-L-Dab-L-Dab-L-Glu]] ({Decanoyl(3R-OH)}-[dDab][Dab][Dab][dF]L[Dab][Dab]E; lactam 2-C)	> 300 µM	>32 µg/mL	>32 µg/mL	64 µg/mL (≈ 60.4 µM)	>32 µg/mL	>32 µg/mL	>32 µg/mL	>64 µg/mL	>64 µg/mL	8 µg/mL (≈ 7.54 µM)	>64 µg/mL	>64 µg/mL	>32 µg/mL	
CCCCCCC[C@@H](O)CC(=O)N[C@H](CCN)C(=O)N[C@H]1CCNC(=O)[C@H](CC(=O)O)NC(=O)[C@H](CCN)NC(=O)[C@H](CCN)NC(=O)[C@H](CC(C)C)NC(=O)[C@@H](Cc2ccccc2)NC(=O)[C@H](CCN)NC1=O [compound 6513, 3(R)OH-nC9CO-D-Dab-cyc[L-Dab-L-Dab-D-Phe-L-Leu-L-Dab-L-Dab-L-Asp]] ({Decanoyl(3R-OH)}-[dDab][Dab][Dab][dF]L[Dab][Dab]D; lactam 2-C)	> 300 µM	8 µg/mL (≈ 7.65 µM)	>32 µg/mL	64 µg/mL (≈ 61.2 µM)	>32 µg/mL	>32 µg/mL	>32 µg/mL	>64 µg/mL	>64 µg/mL	4 µg/mL (≈ 3.82 µM)	>64 µg/mL	>64 µg/mL	>32 µg/mL	
CC(C)CCCC(C)CC(=O)N[C@H](CCN)C(=O)N[C@H]1CCNC(=O)[C@H](CC(C)C)NC(=O)[C@H](CCN)NC(=O)[C@H](CCN)NC(=O)[C@H](Cc2ccccc2)NC(=O)[C@@H](CC(C)C)NC(=O)[C@H](CCN)NC1=O (stereo partly drawn) [compound 6515, 3,7-dimethyloctanoic acid-D-Dab-cyc[L-Dab-L-Dab-D-Leu-L-Phe-L-Dab-L-Dab-L-Leu]] (X8-[dDab][Dab][Dab][dL]F[Dab][Dab]L; lactam 2-C)	80 µM		16 µg/mL (≈ 15.6 µM)	4 µg/mL (≈ 3.89 µM)	32 µg/mL (≈ 31.1 µM)	32 µg/mL (≈ 31.1 µM)	2 µg/mL (≈ 1.94 µM)	2 µg/mL (≈ 1.94 µM)	8 µg/mL (≈ 7.78 µM)	2 µg/mL (≈ 1.94 µM)	>32 µg/mL	8 µg/mL (≈ 7.78 µM)	16 µg/mL (≈ 15.6 µM)	2 µg/mL (≈ 1.94 µM)
